Source: patent publication US20250230154A1, “COMPOUND HAVING SHP2 PROTEIN DEGRADING ACTIVITY, AND MEDICAL USES THEREOF” (UBIX THERAPEUTICS, INC., priority 2021, published 2025)

Target: T1, SHP2 protein (Homo sapiens, UniProt Q06124)
T1 sequence (Q06124 1-593): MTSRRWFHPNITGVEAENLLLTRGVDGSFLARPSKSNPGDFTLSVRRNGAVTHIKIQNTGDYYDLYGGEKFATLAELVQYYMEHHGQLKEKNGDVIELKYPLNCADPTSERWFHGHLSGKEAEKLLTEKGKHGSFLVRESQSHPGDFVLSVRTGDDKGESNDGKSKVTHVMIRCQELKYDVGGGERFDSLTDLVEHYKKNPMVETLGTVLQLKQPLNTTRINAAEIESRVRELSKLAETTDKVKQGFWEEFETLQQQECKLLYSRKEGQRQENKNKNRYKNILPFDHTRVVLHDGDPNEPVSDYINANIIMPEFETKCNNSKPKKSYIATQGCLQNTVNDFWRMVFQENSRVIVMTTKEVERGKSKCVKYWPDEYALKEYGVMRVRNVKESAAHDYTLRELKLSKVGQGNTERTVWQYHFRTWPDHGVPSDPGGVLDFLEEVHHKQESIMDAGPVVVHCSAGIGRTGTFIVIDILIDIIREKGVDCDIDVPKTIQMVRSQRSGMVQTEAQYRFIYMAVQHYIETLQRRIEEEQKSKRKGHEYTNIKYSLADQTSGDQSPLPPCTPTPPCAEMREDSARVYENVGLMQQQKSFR
Assay: Measurement of SHP2 protein degradation in MV-4-11 cells (western blotting)
Type: cell-based
Parameters: endogenous in cells; host or cells: MV-4-11
Conditions: MV-4-11 cells, 24 hours
Outline: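 SHP2 protein levels were assessed by western blotting in MV-4-11 cells after a 24 hour compound treatment. Lysates were sonicated, centrifuged, normalized by BCA assay at 562 nm, run on Bis-tris 4-12% gels, transferred to NC membrane, probed with anti-SHPTP2 (70 kDa) and anti-GAPDH (37 kDa) antibodies, and detected on LI-COR Odyssey.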

SHP2 degradation (%) 10 nM [%] | SHP2 degradation (%) 100 nM [%] | SHP2 degradation (%) 1000 nM [%] | Compound
−29.2 | 23.8 |  | Cc1ncsc1-c1ccc(CNC(=O)[C@@H]2C[C@@H](O)CN2C(=O)[C@@H](NC(=O)C2(F)CC2)C(C)(C)C)c(OCCN2CCN(c3nccc(C(=O)Nc4cccc(Sc5cnc(N6CCC(C)(CN)CC6)cn5)c4Cl)n3)CC2)c1 [Example 86, N-(3-((5-(4-(aminomethyl)-4-methylpiperidin-1-yl)pyrazin-2-yl)thio)-2-chlorophenyl)-2-(4-(2-(2-(((2S,4R)-1-((S)-2-(1-fluorocyclopropane-1-carboxamido)-3,3-dimethylbutanoyl)-4-hydroxypyrrolidine-2-carboxamido)methyl)-5-(4-methylthiazol-5-yl)phenoxy)ethyl)piperazin-1-yl)pyrimidine-4-carboxamide]
95.7 | 99.8 | 99.7 | CC(=O)N[C@H](C(=O)N1C[C@H](O)C[C@H]1C(=O)NCc1ccc(-c2scnc2C)cc1OCCN1CCN(C(=O)CC(=O)Nc2cccc(Sc3cnc(N4CCC(C)(CN)CC4)cn3)c2Cl)CC1)C(C)(C)C [Example 57, (2S,4R)-1-((S)-2-acetamido-3,3-dimethylbutanoyl)-N-(2-(2-(4-(3-((3-((5-(4-(aminomethyl)-4-methylpiperidin-1-yl)pyrazin-2-yl)thio)-2-chlorophenyl)amino)-3-oxopropanoyl)piperazin-1-yl)ethoxy)-4-(4-methylthiazol-5-yl)benzyl)-4-hydroxypyrrolidine-2-carboxamide]
68.3 | 98.1 |  | COC(=O)[C@H]1CN(C(=O)CC(=O)Nc2cccc(Sc3cnc(N4CCC(C)(CN)CC4)cn3)c2Cl)CCN1CCOc1cc(-c2scnc2C)ccc1CNC(=O)[C@@H]1C[C@@H](O)CN1C(=O)[C@@H](NC(=O)C1(F)CC1)C(C)(C)C [Example 67, Methyl (R)-4-(3-((3-((5-(4-(aminomethyl)-4-methylpiperidin-1-yl)pyrazin-2-yl)thio)-2-chlorophenyl)amino)-3-oxopropanoyl)-1-(2-(2-(((2S,4R)-1-((S)-2-(1-fluorocyclopropane-1-carboxamido)-3,3-dimethylbutanoyl)-4-hydroxypyrrolidine-2-carboxamido)methyl)-5-(4-methylthiazol-5-yl)phenoxy)ethyl)piperazine-2-carboxylate]
22.7 | 93.2 |  | Cc1ncsc1-c1ccc(CNC(=O)[C@@H]2C[C@@H](O)CN2C(=O)[C@@H](NC(=O)C2(F)CC2)C(C)(C)C)c(OCCN2CCN(c3ccc(C(=O)Nc4cccc(Sc5cnc(N6CCC(C)(CN)CC6)cn5)c4Cl)nc3)CC2)c1 [Example 81, N-(3-((5-(4-(aminomethyl)-4-methylpiperidin-1-yl)pyrazin-2-yl)thio)-2-chlorophenyl)-5-(4-(2-(2-(((2S,4R)-1-((S)-2-(1-fluorocyclopropane-1-carboxamido)-3,3-dimethylbutanoyl)-4-hydroxypyrrolidine-2-carboxamido)methyl)-5-(4-methylthiazol-5-yl)phenoxy)ethyl)piperazin-1-yl)picolinamide]
83.0 | 93.5 | 93.5 | Cc1ncsc1-c1ccc(CNC(=O)[C@@H]2C[C@@H](O)CN2C(=O)[C@@H](NC(=O)C2(F)CC2)C(C)(C)C)c(OCCC2CCN(C(=O)CC(=O)Nc3cccc(Sc4cnc(N5CCC(C)(CN)CC5)cn4)c3Cl)CC2)c1 [Example 36, (2S,4R)—N-(2-(2-(1-(3-((3-((5-(4-(aminomethyl)-4-methylpiperidin-1-yl)pyrazin-2-yl)thio)-2-chlorophenyl)amino)-3-oxopropanoyl)piperidin-4-yl)ethoxy)-4-(4-methylthiazol-5-yl)benzyl)-1-((S)-2-(1-fluorocyclopropane-1-carboxamido)-3,3-dimethylbutanoyl)-4-hydroxypyrrolidine-2-carboxamide]
68.0 | 91.0 | 93.0 | Cc1ncsc1-c1ccc(CNC(=O)[C@@H]2C[C@@H](O)CN2C(=O)[C@@H](NC(=O)C2(F)CC2)C(C)(C)C)c(OCCC2CCN(C(=O)CCC(=O)Nc3cccc(Sc4cnc(N5CCC(C)(CN)CC5)cn4)c3Cl)CC2)c1 [Example 45, (2S,4R)—N-(2-(2-(1-(4-((3-((5-(4-(aminomethyl)-4-methylpiperidin-1-yl)pyrazin-2-yl)thio)-2-chlorophenyl)amino)-4-oxobutanoyl)piperidin-4-yl)ethoxy)-4-(4-methylthiazol-5-yl)benzyl)-1-((S)-2-(1-fluorocyclopropane-1-carboxamido)-3,3-dimethylbutanoyl)-4-hydroxypyrrolidine-2-carboxamide]
74 | 93 | 93 | Cc1ncsc1-c1ccc(CNC(=O)[C@@H]2C[C@@H](O)CN2C(=O)[C@@H](NC(=O)C2(F)CC2)C(C)(C)C)c(OCCC2CCN(C(=O)CC(=O)Nc3cccc(Sc4ncc(N5CCC(C)(N)CC5)nc4N)c3Cl)CC2)c1 [Example 35, (2S,4R)—N-(2-(2-(1-(3-((3-((3-amino-5-(4-amino-4-methylpiperidin-1-yl)pyrazin-2-yl)thio)-2-chlorophenyl)amino)-3-oxopropanoyl)piperidin-4-yl)ethoxy)-4-(4-methylthiazol-5-yl)benzyl)-1-((S)-2-(1-fluorocyclopropane-1-carboxamido)-3,3-dimethylbutanoyl)-4-hydroxypyrrolidine-2-carboxamide]
83.9 | 97.8 |  | Cc1ncsc1-c1ccc(CNC(=O)[C@@H]2C[C@@H](O)CN2C(=O)[C@@H](NC(=O)C2(F)CC2)C(C)(C)C)c(OCCN2CCN(C(=O)CC(=O)Nc3cccc(Sc4cnc(N5CCC(C)(N)CC5)cn4)c3Cl)CC2)c1 [Example 53, (2S,4R)—N-(2-(2-(4-(3-((3-((5-(4-amino-4-methylpiperidin-1-yl)pyrazin-2-yl)thio)-2-chlorophenyl)amino)-3-oxopropanoyl)piperazin-1-yl)ethoxy)-4-(4-methylthiazol-5-yl)benzyl)-1-((S)-2-(1-fluorocyclopropane-1-carboxamido)-3,3-dimethylbutanoyl)-4-hydroxypyrrolidine-2-carboxamide]
9.1 | 45.5 |  | Cc1ncsc1-c1ccc(CNC(=O)[C@@H]2C[C@@H](O)CN2C(=O)[C@@H](NC(=O)C2(F)CC2)C(C)(C)C)c(OC2CC3(CCN(c4cnc(C(=O)Nc5cccc(Sc6cnc(N7CCC(C)(CN)CC7)cn6)c5Cl)nc4)CC3)C2)c1 [Example 87, N-(3-((5-(4-(aminomethyl)-4-methylpiperidin-1-yl)pyrazin-2-yl)thio)-2-chlorophenyl)-5-(2-(2-(((2S,4R)-1-((S)-2-(1-fluorocyclopropane-1-carboxamido)-3,3-dimethylbutanoyl)-4-hydroxypyrrolidine-2-carboxamido)methyl)-5-(4-methylthiazol-5-yl)phenoxy)-7-azaspiro[3.5]nonan-7-yl)pyrimidine-2-carboxamide]
78.4 | 98.6 |  | Cc1ncsc1-c1ccc(CNC(=O)[C@@H]2C[C@@H](O)CN2C(=O)[C@@H](NC(=O)C2CC2)C(C)(C)C)c(OCCN2CCN(CC(=O)Nc3cccc(Sc4cnc(N5CCC(C)(CN)CC5)cn4)c3Cl)C(=O)C2)c1 [Example 79, (2S,4R)—N-(2-(2-(4-(2-((3-((5-(4-(aminomethyl)-4-methylpiperidin-1-yl)pyrazin-2-yl)thio)-2-chlorophenyl)amino)-2-oxoethyl)-3-oxopiperazin-1-yl)ethoxy)-4-(4-methylthiazol-5-yl)benzyl)-1-((S)-2-(cyclopropanecarboxamido)-3,3-dimethylbutanoyl)-4-hydroxypyrrolidine-2-carboxamide]

Compound | SHP2 degradation (%) 10 nM [%] | SHP2 degradation (%) 100 nM [%] | SHP2 degradation (%) 1000 nM [%]
Cc1ncsc1-c1ccc(CNC(=O)[C@@H]2C[C@@H](O)CN2C(=O)[C@@H](NC(=O)C2(F)CC2)C(C)(C)C)c(OCCN2CC3CCC(C2)N3C(=O)CC(=O)Nc2cccc(Sc3cnc(N4CCC(C)(CN)CC4)cn3)c2Cl)c1 [Example 68, (2S,4R)—N-(2-(2-(8-(3-((3-((5-(4-(aminomethyl)-4-methylpiperidin-1-yl)pyrazin-2-yl)thio)-2-chlorophenyl)amino)-3-oxopropanoyl)-3,8-diazabicyclo[3.2.1]octan-3-yl)ethoxy)-4-(4-methylthiazol-5-yl)benzyl)-1-((S)-2-(1-fluorocyclopropane-1-carboxamido)-3,3-dimethylbutanoyl)-4-hydroxypyrrolidine-2-carboxamide] | 83.3 | 98.3 | 
